Experimental data reported in patent US4024082A, “Analgesics” (priority 1975, dated 1977).

What was measured:
[1] = tested on: acetic acid induced stretching; assay: Analgesic activity, acetic acid induced stretching method; format: in vivo, male albino mice dd strain; conditions: for ED50, Mean Value: 60 min
Description: (§1) The dl-KMG-86, d-KMG-86 and l-KMG-86 were all screened for their biological activity by the assays described in the reference J. Med. Chem. 16, 301 (1973). All three compounds were screened for their analgesic activity by the acetic acid induced stretching method of R. Kosta, Fed. Proc., Fed. Amer. Soc. Exp. Biol., 18, 412 (1959). Male albino mice dd strain (18.0-22.0 g.) were used. After the compounds were administered subcutaneously to five groups of animals consisting of ten mice per group, the effective ratio until 60 minutes was examined and the effective dose in 50% of the mice (ED50) was calculated by the Lichfield-Wilcoxin method [J. T. Lichfield and F. Wilcoxin, J. Pharmacol., 96, 99 (1949)]. […] Med. Wochenschr., 55, 731 (1929)], in which ten male mice dd strain per group were used.

morphine analgesia = assay: Antagonism of morphine analgesia, Haffner method; format: in vivo, male mice dd strain; conditions: morphine 16 mg/kg subcutaneously
Description: as §1

[2] = J. Med. Chem. 16, 301 (1973); cited from earlier work
[3] = as described in U.S. Pat. No. 3,728,347; cited from earlier work
[4] = as described in U.S. Pat. No. 3,728,347; cited from earlier work; remark: listed apart in the source
[5] = humans; cited from earlier work
Side effects or toxicity = conditions: in vivo
[6] = Morphine analgesia (Haffner method); format: in vivo, male mice dd strain; conditions: subcutaneously
Description: as §1

[7] = stretching method, subcutaneous, effective ratio until 60 minutes, Lichfield-Wilcoxin method

## Oc1ccc2c(c1)C13CCCCC1N(C2)N(CC1CC1)CC3 (racemic) [dl-KMG-86, dl-N-cyclopropylmethyl-3-hydroxy-9-azamorphinan]
[1]; [7]
  ED50, Mean Value: 1.63 mg/kg
Morphine analgesia
  Antagonist Dose (AD50): 4.70 mg/kg, S. C.
[2]
  activity relative to pentazocine: about twice as active as pentazocine
[3]
  analgesic activity compared with morphine: remarkable analgesic activity as strong as that possessed by morphine
[4]
  opiate dependence liability: lacking opiate dependence liability
[5]
  confirmation in clinical studies of the activity found in mice: The activity found in mice was confirmed in clinical studies in humans

## CC(C)=CCN1CCC2(C)c3cc(O)ccc3CC1C2C (centres unmarked) [Pentazocine, reference compound]
[1]; Mus musculus, sc, 1 h, stretching method, subcutaneous, effective ratio until 60 minutes, Lichfield-Wilcoxin method
  ED50: 2.4 mg/kg

## Oc1ccc2c(c1)C13CCCCC1N(C2)N(CC1CC1)CC3 (stereo not drawn) [d-KMG-86, d-N-cyclopropylmethyl-3-hydroxy-9-azamorphinan]
[1]; [7]
  ED50, Mean Value: ca. 80 mg/kg
Morphine analgesia
  Antagonist Dose (AD50): 20 mg/kg, S. C.

## Oc1ccc2c(c1)C13CCCCC1N(C2)N(CC1CC1)CC3 (stereo not drawn) [l-KMG-86, l-N-cyclopropylmethyl-3-hydroxy-9-azamorphinan]
[1]; from Table I ED50 (stretching method)
  potency of l-isomer relative to dl-mixture: about 3.5 fold
[1]; [7]
  ED50, Mean Value: 0.45 mg/kg
Morphine analgesia
  Antagonist Dose (AD50): 2.20 mg/kg, S. C.
Side effects or toxicity
  side effects or toxicity: no substantial side effects or toxicity

## CN1CC[C@]23c4c5ccc(O)c4O[C@H]2[C@@H](O)C=C[C@H]3[C@H]1C5 [morphine]
[6]
  ED100 of morphine: 16 mg/kg
